ChEMBL document CHEMBL1201862, “PubChem BioAssay data set” (2004)
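A five-concentration, 48-hour dose response in 96-well plates underlies each endpoint, interpolated linearly between surrounding concentrations. GI50 = concentration required for 50% inhibition of growth.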 Calls of active or inactive are those of the source. Cut-off read from the data, not from the text of the source: active = GI50 up to about 1.1 µM and inactive = higher.

What was measured:
Test in all cases: NCI-60 cell line screen, 48 h
A498 = tested on: A498
COLO 205 = tested on: COLO 205
DU-145 = tested on: DU-145
EKVX = tested on: EKVX
HL-60 = tested on: HL-60
Hs-578T = tested on: Hs-578T
IGROV-1 = tested on: IGROV-1
K562 = tested on: K562
NCI-H522 = tested on: NCI-H522
OVCAR-4 = tested on: OVCAR-4
OVCAR-8 = tested on: OVCAR-8
RPMI-8226 = tested on: RPMI-8226
SF-539 = tested on: SF-539
SK-MEL-2 = tested on: SK-MEL-2
SK-MEL-5 = tested on: SK-MEL-5
SK-OV-3 = tested on: SK-OV-3
TK-10 = tested on: TK-10
UACC-62 = tested on: UACC-62
Malme-3M = tested on: Malme-3M

Measured: GI50

O=C1CSC2=NC3=C(COC/C3=C\c3ccc(Br)cc3)C(c3ccc(Br)cc3)N12 (stereo unspecified)
inactive: A498 > 100 µM | COLO 205 58.7 µM | DU-145 > 100 µM | EKVX > 100 µM | HL-60 12.9 µM | Hs-578T > 100 µM | IGROV-1 98.6 µM | K562 28.9 µM | NCI-H522 3.92 µM | OVCAR-4 > 100 µM | OVCAR-8 74.6 µM | RPMI-8226 20.9 µM | SF-539 > 100 µM | SK-MEL-2 > 100 µM | SK-MEL-5 96.4 µM | SK-OV-3 > 100 µM | TK-10 97.9 µM | UACC-62 > 100 µM

COc1ccccc1/C=C/C1=NN(c2cccc(S(=O)(=O)O)c2)C2(C1)SCC(=O)N2c1nc2ccccc2s1 (stereo unspecified)
inactive: A498 83.4 µM | COLO 205 67.8 µM | DU-145 89.7 µM | EKVX 68.2 µM | HL-60 50.2 µM | Hs-578T > 100 µM | IGROV-1 21.4 µM | K562 36.2 µM | Malme-3M > 100 µM | NCI-H522 36.7 µM | OVCAR-4 86.7 µM | OVCAR-8 53.2 µM | RPMI-8226 23.6 µM | SF-539 > 100 µM | SK-MEL-2 > 100 µM | SK-MEL-5 64.4 µM | TK-10 84.3 µM | UACC-62 53.8 µM

O=C(O)C1CCCN1C(=O)c1cc(Cl)ccn1 (stereo unspecified)
inactive: A498 > 100 µM | COLO 205 > 100 µM | DU-145 > 100 µM | EKVX > 100 µM | HL-60 > 100 µM | Hs-578T > 100 µM | IGROV-1 > 100 µM | K562 > 100 µM | Malme-3M > 100 µM | NCI-H522 > 100 µM | OVCAR-4 > 100 µM | OVCAR-8 > 100 µM | RPMI-8226 > 100 µM | SF-539 > 100 µM | SK-MEL-2 > 100 µM | SK-MEL-5 > 100 µM | TK-10 > 100 µM | UACC-62 > 100 µM

CCSc1cc(=O)n(C)c(=O)n1C
inactive: A498 > 100 µM | COLO 205 > 100 µM | DU-145 > 100 µM | EKVX > 100 µM | HL-60 > 100 µM | Hs-578T > 100 µM | Malme-3M > 100 µM | NCI-H522 > 100 µM | OVCAR-4 > 100 µM | OVCAR-8 > 100 µM | RPMI-8226 > 100 µM | SF-539 > 100 µM | SK-MEL-2 > 100 µM | SK-MEL-5 > 100 µM | SK-OV-3 > 100 µM | TK-10 > 100 µM | UACC-62 > 100 µM

CC1(C)NC2C(=O)c3c([nH]c4ccccc34)[C@]3(C)CCC1CC23 (stereo partly specified)
inactive: A498 > 100 µM | COLO 205 > 100 µM | DU-145 > 100 µM | EKVX > 100 µM | HL-60 > 100 µM | Hs-578T > 100 µM | IGROV-1 > 100 µM | K562 96.8 µM | Malme-3M > 100 µM | NCI-H522 > 100 µM | OVCAR-4 60.8 µM | OVCAR-8 > 100 µM | RPMI-8226 82.8 µM | SF-539 > 100 µM | SK-MEL-2 > 100 µM | SK-MEL-5 > 100 µM | TK-10 > 100 µM | UACC-62 > 100 µM

CCOC(=O)c1cccn1S(=O)(=O)c1cc(Cl)ccc1NC(=O)CC
inactive: A498 > 100 µM | COLO 205 16.3 µM | DU-145 > 100 µM | EKVX 61.7 µM | HL-60 > 100 µM | Hs-578T 28.9 µM | IGROV-1 > 100 µM | K562 51.8 µM | NCI-H522 18.5 µM | OVCAR-4 60.1 µM | RPMI-8226 75.9 µM | SF-539 > 100 µM | SK-MEL-2 53.5 µM | SK-MEL-5 20.2 µM | SK-OV-3 43.3 µM | TK-10 > 100 µM | UACC-62 58.9 µM
